Experimental data: patent US5352685A, “Thieno[3,2-b]pyridine derivatives” (priority 1992, dated 1994)
Structures can show the parent of a compound that is named as a salt.

Tests used:
dog gastric contraction = assay: Promoting action of dog gastric contraction; type: in vivo, dog (adult mongrel); conditions: Canis lupus familiaris, iv, 0.5 h; i.v.; starved dogs; contraction for 30-minute interval after dose vs. IMC contraction immediately before; read-out: ED50 (dose developing 50% of the IMC contraction)
Protocol: 2) Promoting action of dog gastric contraction An implant-type strain-gauge transducer was sutured onto the serosa at the autrum (about 3 cm above pylorus) of adult mongrel dogs, weighed 11 to 15 kg, so as to determine the contraction of the circular muscle. Two weeks or more after the surgery, the gastric contraction was recorded for analysis with a data processing device. […] The dog was put to starvation for about 16 hours. Ten minutes after the completion of one IMC, a test compound was intravenously administered. The contraction for the 30-minute interval thereafter was represented as a percentage (%) to the IMC contraction having occurred immediately before, and the dose developing the 50% contraction was defined as ED50.

mouse gastric emptying = assay: Promoting action of mouse gastric emptying; type: in vivo; conditions: 1 mg/kg, p.o.; 24-hour starved male ddy mice; control group (distilled water) defined as 100%
Protocol: Promoting action of mouse gastric emptying Male, ddy mice (body weight; 20 to 25 g) were used. 24-Hour after starvation 1 mg/kg test compounds dissolved in distilled water were orally administered (10 ml/kg). To the control group distilled water was orally administered (10 ml/kg). One hour later, a 2000 ppm phenol red solution (suspended in aqueous 0.5% carboxymethyl cellulose solution) was administered to each mouse (liquid dose; 0.05 ml/mouse). Then, 15 minutes later, the animals were killed to remove the stomachs. The phenol red retained in the stomachs was developed in 20 ml of a 2.75% trisodium phosphate solution, and analyzed with an absorption photometer at a wave length of 540 nm (A). Immediately after the phenol red solution was administered, the animals were killed to quantitatively determine the phenol red left in the stomachs (B). The difference in the amount of phenol red between A and B (B-A) was designated as gastric emptying. The gastric emptying of the test compounds were shown in Table 4 below, provided that the gastric emptying of the control group was defined as 100%.

[1] = Acute toxicity, oral, mice; type: in vivo, mouse (male ddy); conditions: orally 1000 mg/kg; 3 mice per compound; observation 7 days
Protocol: For the test of acute toxicity, male ddy mice (body weight; 25 to 30 g, 3 mice for one test compound) were used. Test compound of Example 1 or 2 was orally administered at 1000 mg/kg.

[2] = molecular target: T1, 5-HT3 (serotonin 3) receptor (Rattus norvegicus, UniProt P35563); assay: 5-HT3 antagonistic action (antagonistic action of Bezold-Jarish reflex) in anesthetized rat; type: in vivo; conditions: iv, 5 min; i.v.; 5-HT 8 μg/kg i.v.; male Wistar rat under urethane anesthesia; read-out: ID50 (dose with inhibition ratio of 50%, Bezold-Jarish reflex)
T1 construct: from tissue; host or cells: living anaesthetized male Wistar rat (in vivo; endogenous receptor)
T1 sequence (P35563 24-483): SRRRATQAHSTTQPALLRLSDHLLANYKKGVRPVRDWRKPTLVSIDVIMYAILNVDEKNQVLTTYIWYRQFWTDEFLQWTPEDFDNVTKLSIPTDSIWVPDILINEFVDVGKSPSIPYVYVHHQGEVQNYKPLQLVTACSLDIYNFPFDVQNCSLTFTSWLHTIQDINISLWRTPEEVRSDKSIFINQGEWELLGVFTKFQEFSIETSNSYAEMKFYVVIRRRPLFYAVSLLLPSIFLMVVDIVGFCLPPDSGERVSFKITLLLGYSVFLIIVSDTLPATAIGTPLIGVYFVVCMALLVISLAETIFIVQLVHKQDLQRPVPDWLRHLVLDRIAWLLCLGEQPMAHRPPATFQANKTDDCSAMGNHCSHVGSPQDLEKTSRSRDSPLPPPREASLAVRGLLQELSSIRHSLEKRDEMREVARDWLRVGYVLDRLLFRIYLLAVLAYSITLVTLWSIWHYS
Protocol: 3) 5-HT3 antagonistic action (antagonistic action of Bezold-Jarish reflex)
According to the following method, the assessment of a compound in terms of the antagonistic action of Bezold-Jarish reflex triggered by 5-HT was carried out in a rat under anesthesia.
A male Wistar rat, weighed 300 to 400 g, was anesthetized with an intra-parenteral dose of 1.2 g/kg urethane, to monitor the heart rate triggered by electrocardiography. Five minutes after saline was intravenously administered (0.5 ml/kg) to the rat, 5-HT (8 μg/kg) dissolved in saline (0.5 ml/kg) was intravenously administered firstly, to measure the change in […] (A). To the same rat after 10 minutes interval, the test compound was intravenously administered, 5 minutes later 5-HT was administered in the same fashion, to measure the change in heart rate (B). Based on these values, the inhibition ratio of the test compound was calculated by the following formula:
inhibition ratio=(1-B/A)×100
Also, the dose with the inhibition ratio of 50% was defined as the ID50 of the test compound.

SMILES	ED50 (dog gastric contraction)	Promoting Action of Gastric Emptying (%) (mouse gastric emptying)	death (acute toxicity) [1]	ED50 [2]
COc1cc(N)c(Cl)cc1C(=O)NC1CCN2CCCC1C2 (stereo not drawn) [BRL-24924, (endo)-4-amino-5-chloro-2-methoxy-N-[1-azabicyclo-(3.3.1)-non-4-yl]-benzamide hydrochloride, reference compound]	100 µg/kg	–	–	–
Cc1csc2c(O)c(C(=O)NC3CN4CCC3CC4)cnc12 (stereo not shown) [Example 11]	–	152%	–	–
O=C(N[C@H]1CN2CCC1CC2)c1cnc2ccsc2c1O [Example 2, R-N-(1-azabicyclo[2.2.2]oct-3-yl)-7-hydroxythieno[3.2-b]pyridine-6-carboxamide]	5 µg/kg	185%	no death	–
CN1[C@@H]2CC[C@H]1C[C@@H](NC(=O)c1cn(C)c3ccsc3c1=O)C2 [Example 10, (endo)-N-(8-methyl-8-azabicyclo[3.2.1]oct-3-yl)-4,7-dihydro-4-methyl-7-oxothieno[3.2-b]pyridine-6-carboxamide]	–	140%	–	–
O=C(NC1CN2CCC1CC2)c1cnc2ccsc2c1O (stereo not shown) [Example 1, N-(1-azabicyclo[2.2.2]oct-3-yl)-7-hydroxythieno[3.2-b]pyridine-6-carboxamide]	10 µg/kg	147%	no death	0.15 µg/kg
